Tested on: OGD-injuried neurons (primary cortical neurons)
Experiment: Cell viability assay: LDH release by OGD-injured primary cortical neurons
Format: cell-based, mice
Conditions: drug concentration 10^−6 M/L, OGD 2 hours, LDH after 8 hours; for inhibition at 1 µM: Mus musculus, Primary cortical neuron
Description: After primary neurons were cultured for 9 days, the medium was replaced by DMEM high glucose medium containing 1% FBS, serum-starved overnight and then washed twice with OGD culture solution. This OGD culture solution contains DMEM medium, 1% FBS, 1% penicillin/streptomycin and B27, and contains no sugar. Then, the primary neurons were incubated with the test drugs for 30 minutes, OGD culture solution was added into an anaerobic tank and oxygen-deprived for 2 hours. The OGD culture solution was discarded, and replaced by oxygen-saturated DMEM medium containing 1% FBS, 1% penicillin/streptomycin and B27. After 8 hours the culture solution was collected to measure LDH level.
After the primary cortical neurons were treated with various processes, neuronal culture solution in six-well plates was pipetted to a 1.5 mL plastic centrifuge tube; cells were washed three times with PBS solution and each well was added PBS 1000 μl. The cells were freezed and thawed repeated for three times, centrifuged at 12000′ g for 5 minutes at 4° C., and the supernatant was removed for use. The activity of LDH enzyme was determined with 50 μl culture solution and 25 μl supernatant using lactate dehydrogenase kit.
Protective Effects of the Objective Compounds Against Primary Cortical Neuronal Injury Cultured In Vitro (See Table 2)

Compound	Inhibition of LDH release (%)	inhibition at 1 µM
COC(=O)c1ccc(N(Cc2cc(C(F)(F)F)cc(Cl)c2O)C(C)=O)cc1OC(C)=O [ZL006-83, methyl 2-acetyloxy-4-[N-(2-hydroxy-3-chloro-5-trifluoromethylbenzyl)-N-acetyl]aminobenzoate]	33.2%	
COc1cc(NCc2cc(Cl)ccc2O)ccc1C(=O)OC1CC2CCC1(C)C2(C)C (stereo not drawn) [ZL006-67, bornyl-2-methoxy-4-(2-hydroxy-5-chlorobenzyl) aminobenzoate]	0.4%	
CC1(C)C2CCC1(C)C(OC(=O)c1cc(NCc3cc(F)cc(Cl)c3O)ccc1O)C2 (stereo not drawn) [ZL006-56, bornyl-2-hydroxy-5-(2-hydroxy-3-chloro-5-fluorobenzyl)aminobenzoate]		50%
CC(=O)N(Cc1cc(C(F)(F)F)cc(Cl)c1O)c1ccc(C(=O)OC2CC3CCC2(C)C3(C)C)c(O)c1 (stereo not drawn) [ZL006-54, bornyl-2-hydroxy-4-[N-(2-hydroxy-3-chloro-5-trifluoromethylbenzyl)-N-acetyl]aminobenzoate]	74.2%	
CC1(C)C2CCC1(C)C(OC(=O)c1cc(NCc3cc(Cl)ccc3O)ccc1O)C2 (stereo not drawn) [ZL006-03, bornyl-2-hydroxy-5-(2-hydroxy-5-chlorobenzyl) aminobenzoate]	17.8%	
CCCCOc1cc(NCc2cc(Cl)cc(Cl)c2O)ccc1C(=O)OC1CC2CCC1(C)C2(C)C (stereo not drawn) [ZL006-21, bornyl-2-n-butoxy-4-(2-hydroxy-3,5-dichlorobenzyl) aminobenzoate]	6.2%	
CCCCOc1cc(NCc2cc(F)cc(Cl)c2O)ccc1C(=O)OC1CC2CCC1(C)C2(C)C (stereo not drawn) [ZL006-58, bornyl-2-n-butoxy-4-(2-hydroxy-3-chloro-5-fluorobenzyl) aminobenzoate]	25.1%	
COc1cc(NCc2cc(Br)cc(Cl)c2O)ccc1C(=O)OC1CC2CCC1(C)C2(C)C (stereo not drawn) [ZL006-41, bornyl-2-methoxy-4-(2-hydroxy-3-chloro-5-bromobenzyl) aminobenzoate]	45.5%	
CC1(C)C2CCC1(C)C(OC(=O)c1cc(NCc3cc(Cl)cc(Cl)c3O)ccc1O)C2 (stereo not drawn) [ZL006-01, bornyl-2-hydroxy-5-(2-hydroxy-3,5-dichlorobenzyl) aminobenzoate]	2.3%	
CC(=O)N(Cc1cc(Br)cc(Cl)c1O)c1ccc(C(=O)OC2CC3CCC2(C)C3(C)C)c(O)c1 (stereo not drawn) [ZL006-46, bornyl-2-hydroxy-4-[N-(2-hydroxy-3-chloro-5-bromobenzyl)-N-acetyl]aminobenzoate]	72.5%	
CC1(C)C2CCC1(C)C(OC(=O)c1cc(NCc3cc(Br)ccc3O)ccc1O)C2 (stereo not drawn) [ZL006-04, bornyl-2-hydroxy-5-(2-hydroxy-5-bromobenzyl) aminobenzoate]	26.9%	
bornyl-2-(2-ethoxy-2-carbonylethoxy)-4-[N-(2-hydroxy-3,5-dichlorobenzyl)-N-(2-ethoxy-2-carbonylethyl)]aminobenzoate [ZL006-36]	10.4%	
COC(=O)c1cc(N(C)Cc2cc(F)cc(Cl)c2O)ccc1O [ZL006-11, methyl 2-hydroxy-5-[N-(2-hydroxy-3-chloro-5-fluorobenzyl)-N-methyl]aminobenzoate]	41.1%	
COc1cc(NCc2cc(Cl)cc(Cl)c2O)ccc1C(=O)OC1CC2CCC1(C)C2(C)C (stereo not drawn) [ZL006-20, bornyl-2-methoxy-4-(2-hydroxy-3,5-dichlorobenzyl) aminobenzoate]	11.1%	
CC1(C)C2CCC1(C)C(OC(=O)c1cc(NCc3cc(C(F)(F)F)cc(Cl)c3O)ccc1O)C2 (stereo not drawn) [ZL006-48, bornyl-2-hydroxy-5-(2-hydroxy-3-chloro-5-trifluoromethylbenzyl)aminobenzoate]		21.1%
CC1(C)C2CCC1(C)C(OC(=O)c1ccc(NCc3cc(F)ccc3O)cc1O)C2 (stereo not drawn) [ZL006-69, bornyl-2-hydroxy-4-(2-hydroxy-5-fluorobenzyl) aminobenzoate]	17.3%	
CC1(C)C2CCC1(C)C(OC(=O)c1ccc(NCc3cc(F)cc(Cl)c3O)cc1O)C2 (stereo not drawn) [ZL006-08, bornyl-2-hydroxy-4-(2-hydroxy-3-chloro-5-fluorobenzyl) aminobenzoate]	50.4%	
COc1cc(NCc2cc(F)ccc2O)ccc1C(=O)OC1CC2CCC1(C)C2(C)C (stereo not drawn) [ZL006-70, bornyl-2-methoxy-4-(2-hydroxy-5-fluorobenzyl) aminobenzoate]	2.4%	
CC(=O)Oc1cc(NCc2cc(C(F)(F)F)cc(Cl)c2O)ccc1C(=O)OC1CC2CCC1(C)C2(C)C (stereo not drawn) [ZL006-51, bornyl-2-acetyloxy-4-(2-hydroxy-3-chloro-5-trifluoromethylbenzyl)aminobenzoate]		66.3%
CC(=O)Oc1cc(NCc2cc(Br)ccc2O)ccc1C(=O)OC1CC2CCC1(C)C2(C)C (stereo not drawn) [ZL006-65, bornyl-2-acetyloxy-4-(2-hydroxy-5-bromobenzyl) aminobenzoate]	38.2%	
CN(Cc1cc(Cl)cc(Cl)c1O)c1ccc(C(=O)OC2CC3CCC2(C)C3(C)C)c(O)c1 (stereo not drawn) [ZL006-27, bornyl-2-hydroxy-4-[N-(2-hydroxy-3,5-dichlorobenzyl)-N-methyl]aminobenzoate]	25.3%	
CCCC(=O)Oc1cc(NCc2cc(Br)cc(Cl)c2O)ccc1C(=O)OC1CC2CCC1(C)C2(C)C (stereo not drawn) [ZL006-44, bornyl-2-butyryloxy-4-(2-hydroxy-3-chloro-5-bromobenzyl)aminobenzoate]		43.5%
CC(Nc1ccc(C(=O)O)c(O)c1)c1cc(Br)ccc1O (stereo not drawn) [ZL006-15, 2-hydroxy-4-[1-(2-hydroxy-5-bromo-phenyl)]ethylaminobenzoic acid]		28.6%
COc1c(Cl)cc(Cl)cc1CNc1ccc(C(=O)OC2CC3CCC2(C)C3(C)C)c(O)c1 (stereo not drawn) [ZL006-75, bornyl-2-hydroxy-4-(2-methoxy-3,5-dichlorobenzyl) aminobenzoate]	31.3%	
CC1(C)C2CCC1(C)C(OC(=O)c1ccc(NCc3cc(F)cc(Cl)c3O)cc1O)C2 (stereo not drawn) [ZL006-55, bornyl-2-hydroxy-4-(2-hydroxy-3-chloro-5-fluorobenzyl) aminobenzoate]	36.3%	
COc1cc(NCc2cc(F)cc(Cl)c2O)ccc1C(=O)OC1CC2CCC1(C)C2(C)C (stereo not drawn) [ZL006-57, bornyl-2-methoxy-4-(2-hydroxy-3-chloro-5-fluorobenzyl) aminobenzoate]	23.6%	
COc1cc(NCc2cc(Br)ccc2O)ccc1C(=O)OC1CC2CCC1(C)C2(C)C (stereo not drawn) [ZL006-64, bornyl-2-methoxy-4-(2-hydroxy-5-bromobenzyl) aminobenzoate]	25.4%	
CCCC(=O)Oc1cc(NCc2cc(F)cc(Cl)c2O)ccc1C(=O)OC1CC2CCC1(C)C2(C)C (stereo not drawn) [ZL006-60, bornyl-2-butyryloxy-4-(2-hydroxy-3-chloro-5-fluorobenzyl)aminobenzoate]		68.4%
COc1c(Cl)cc(Br)cc1CNc1ccc(C(=O)OC2CC3CCC2(C)C3(C)C)c(O)c1 (stereo not drawn) [ZL006-77, bornyl-2-hydroxy-4-(2-methoxy-3-chloro-5-bromobenzyl) aminobenzoate]	44.1%	
COc1c(Cl)cc(C(F)(F)F)cc1CNc1ccc(C(=O)OC2CC3CCC2(C)C3(C)C)c(O)c1 (stereo not drawn) [ZL006-79, bornyl-2-hydroxy-4-(2-methoxy-3-chloro-5-trifluoromethylbenzyl)aminobenzoate]		58.3%
